Results on 13 molecules are retold here after publication PMC7663979, “Design of Novel 4-Aminobenzofuroxans and Evaluation of Their Antimicrobial and Anticancer Activity” (International Journal of Molecular Sciences, 2020).

In experiment [1] the test system is Microdochium nivale isolate 21. Description: Fungistatic activity, agar growth medium poison technique, isolate 21. Type of experiment: cell-based. Particulars: 1 mM in PSA; for inhibition at 1000 µM: Microdochium nivale. Here is the method:
(§1) Fungistatic activity of the tested compounds was assessed in vitro using agar growth medium poison technique. The target compounds as well as widely used fungicides benzimidazole and carbendazim were dissolved to 10 mM concentration in 20% Tween 20. The obtained solutions were added 1:9 v/v (giving 1 mM-concentrations of the target compounds) to potato-sucrose agar (PSA) at 60 °C, mixed thoroughly and transferred to Petri dishes. For the control variants, PSA was supplemented with 20% Tween 20 (9:1). Fungistatic effect was tested against two isolates of Microdochium nivale causing snow mold disease of winter cereals (rye) from the culture collection of FRC Kazan Scientific Center of RAS. […] The center of each solidified medium was inoculated upside-down with 5-mm diameter mycelial plug cut from the periphery of 10-day-old cultures. The tested dishes were incubated at 20 °C. The percentage growth inhibition was calculated using Abbott’s formula (1):%Inhibition = [(A − B) ÷ A] × 100(1) where ‘A’ is mycelia growth in the control conditions and ‘B’ is mycelia growth in the treatment conditions. The assay was performed at least in triplicate. Linear growth of each colony was determined during 6 days.

The test system of experiment [2] is Microdochium nivale isolate 1. Description: Fungistatic activity, agar growth medium poison technique, isolate 1. Particulars: 1 mM in PSA; for inhibition at 1000 µM: Microdochium nivale; for inhibition at 1000 µM / growth inhibition: 20 °C. Type of experiment: cell-based. The method, then: as §1
The next experiment concerns Chang Liver. Description: Cytotoxicity assay (Cytell Cell Viability BioApp), normal Chang liver cells. Type of experiment: cell-based. Particulars: Homo sapiens, mean ± SD, three experiments, read-out: IC50 Chang Liver (normal cell line).
A further experiment relates to PANC-1. Briefly: Cytotoxicity assay (Cytell Cell Viability BioApp), PANC-1. Type of experiment: cell-based, human. Particulars: for IC50: Homo sapiens, PANC-1, mean ± SD, three experiments; for SI PANC-1: selectivity index = IC50 normal cells (Chang liver) / IC50 cancer cells, n.s. = no selectivity.
The subject of another experiment is M-HeLa. Description: Cytotoxicity assay (Cytell Cell Viability BioApp), M-HeLa. Particulars: for IC50: Homo sapiens, M-HeLa, mean ± SD, three experiments; for SI M-HeLa: selectivity index = IC50 normal cells (Chang liver) / IC50 cancer cells, n.s. = no selectivity. Type of experiment: cell-based, human.
The next experiment has as its system T98G. Briefly: cells. Type of experiment: cell-based, human. Particulars: for IC50: Homo sapiens, T98G, read-out: IC50 T98G; for SI T98G: selectivity index = IC50 normal cells (Chang liver) / IC50 cancer cells, n.s. = no selectivity.
Another experiment deals with MCF7. Description: Cytotoxicity assay (Cytell Cell Viability BioApp), MCF7. Type of experiment: cell-based, human. Particulars: for IC50: Homo sapiens, MCF7, mean ± SD, three experiments; for SI MCF7: selectivity index = IC50 normal cells (Chang liver) / IC50 cancer cells, n.s. = no selectivity.

What is called IC50 is the concentration that inhibits the measured activity by half. As usually defined, the inhibition is the share of the control response that was lost under treatment. A high value points to a strong effect.

For the molecule `O=[N+]([O-])c1c(Cl)cc2c(no[n+]2[O-])c1Cl` [4,6-dichloro-5-nitrobenzofuroxan, reference compound], the “fungistatic activity (result in words)” value in experiment [1] and in experiment [2] was “not effective” throughout.
As to `O=[N+]([O-])c1c(Cl)cc2c(no[n+]2[O-])c1Nc1ccc(F)cc1` [Compound 3a, 6-chloro-4-((4-fluorophenyl)amino)-5-nitrobenzofuroxan], in the experiment on Chang Liver, the IC50 turned out to be 93.8 ± 8.3 µM. Moreover, in the experiment on PANC-1, the half-maximal inhibitory concentration (IC50) was more than 100 µM and the “SI PANC-1” value was “n.s”. Further, in the experiment on M-HeLa, the 50% inhibitory concentration (IC50) turned out to be 45.9 ± 3.7 µM and the “SI M-HeLa” value is listed as 2.0. Besides, in the experiment on T98G, the IC50 turned out to be 28.3 ± 2.3 µM and the “SI T98G” value is 3.3. Moreover, in the experiment on MCF7, the 50% inhibitory concentration (IC50) was more than 100 µM and the “SI MCF7” value is “n.s”.
For `O=[N+]([O-])c1c(Cl)cc2c(no[n+]2[O-])c1Nc1ccc(Cl)cc1` [Compound 3b, 6-chloro-4-((4-chlorophenyl)amino)-5-nitrobenzofuroxan], the IC50 in the experiment on Chang Liver came to 62.7 ± 5.5 µM; in the experiment on PANC-1, 82.7 ± 7.3 µM; with M-HeLa, 60.6 ± 4.7 µM; with T98G, 12.7 ± 1.1 µM; in the experiment on MCF7, 69.2 ± 5.7 µM. In the experiment on PANC-1, the “SI PANC-1” value is “n.s”. Besides, the “SI M-HeLa” value in the experiment on M-HeLa was 1.0. Besides, the inhibition at 1000 µM in experiment [1] (fifth day of incubation, 20 °C) was more than 40%; in experiment [1] (sixth day of incubation, 20 °C), more than 25%; in experiment [2] (fifth day of incubation) it was more than 40%; in experiment [2] (sixth day of incubation), more than 25%. For the same molecule, the “SI T98G” value in the experiment with T98G came to 5.0. In the experiment on MCF7, the “SI MCF7” value is recorded as “n.s”.
Take `N#Cc1ccc(Nc2c([N+](=O)[O-])c(Cl)cc3c2no[n+]3[O-])cc1` [Compound 3d, 6-chloro-4-((4-cyanophenyl)amino)-5-nitrobenzofuroxan]: in the experiment on Chang Liver, the half-maximal inhibitory concentration (IC50) is more than 100 µM. In the experiment with PANC-1, the IC50 was determined as 61.3 ± 5.1 µM and the “SI PANC-1” value was more than 1.6. Moreover, in the experiment on M-HeLa, the 50% inhibitory concentration (IC50) amounted to 16.6 ± 1.4 µM and the “SI M-HeLa” value is more than 6. In the experiment with T98G, the IC50 came out at 14.7 ± 1.2 µM and the “SI T98G” value is on record as more than 6.8. Besides, in the experiment on MCF7, the IC50 amounted to 67.9 ± 5.7 µM and the “SI MCF7” value is listed as more than 1.5.
On to `COc1ccccc1Nc1c([N+](=O)[O-])c(Cl)cc2c1no[n+]2[O-]` [Compound 3e, 6-chloro-4-((2-methoxyphenyl)amino)-5-nitrobenzofuroxan], for which the 50% inhibitory concentration (IC50) turned out to be 62.7 ± 5.6 µM with Chang Liver; 50 ± 4.1 µM in the experiment with PANC-1; 62.7 ± 5.4 µM in the experiment on M-HeLa; 21.5 ± 1.8 µM with T98G; 79.5 ± 6.4 µM in the experiment with MCF7. In the experiment on PANC-1, the “SI PANC-1” value is on record as 1.3. In the experiment with M-HeLa, the “SI M-HeLa” value is reported as 1.0. Moreover, the “fungistatic activity (result in words)” value in experiment [1] was “one of the most pronounced inhibitory effects”; in experiment [2] it was “inefficient”. Besides, the “SI T98G” value in the experiment with T98G came to 3.0. Besides, the “SI MCF7” value in the experiment on MCF7 was “n.s”.
For `CCCCNc1c([N+](=O)[O-])c(Cl)cc2c1no[n+]2[O-]` [Compound 5a, 4-(butylamino)-6-chloro-5-nitrobenzofuroxan], in the experiment with Chang Liver, the concentration for half-maximal inhibition (IC50) was determined as 100 µM. In addition, in the experiment with PANC-1, the half-maximal inhibitory concentration (IC50) is more than 100 µM and the “SI PANC-1” value is “n.s”. Besides, in the experiment on M-HeLa, the IC50 was determined as 56.5 ± 4.5 µM and the “SI M-HeLa” value is listed as 1.8. The growth inhibition entry in experiment [1] (sixth day of incubation, 20 °C) was “did not cause any inhibition”. The same molecule had an inhibition at 1000 µM in experiment [1] (fifth day of incubation, 20 °C) of 10%. In addition, in the experiment with T98G, the IC50 was found to be 22.7 ± 1.9 µM and the “SI T98G” value is 4.4. Moreover, the “fungistatic activity (result in words)” value in experiment [2] is given as “one of the most effective”. In the experiment with MCF7, the IC50 was more than 100 µM and the “SI MCF7” value is recorded as “n.s”.
Take `CCCCCCNc1c([N+](=O)[O-])c(Cl)cc2c1no[n+]2[O-]` [Compound 5b, 6-chloro-4-(hexylamino)-5-nitrobenzofuroxan]: the IC50 with Chang Liver is more than 100 µM; with PANC-1, 50 ± 3.9 µM; with M-HeLa, 60.8 ± 4.8 µM; in the experiment with T98G it was 65 ± 5.8 µM; with MCF7, more than 100 µM. The “SI PANC-1” value with PANC-1 is listed as more than 2. In the experiment on M-HeLa, the “SI M-HeLa” value is on record as more than 1.6. In the experiment on T98G, the “SI T98G” value is recorded as more than 1.5. Also, in the experiment with MCF7, the “SI MCF7” value is recorded as “n.s”.
As to `O=[N+]([O-])c1c(Cl)cc2c(no[n+]2[O-])c1NC1CCCCC1` [Compound 5d, 6-chloro-4-(cyclohexylamino)-5-nitrobenzofuroxan], in the experiment on Chang Liver, the IC50 was found to be 67.1 ± 5.7 µM. In the experiment with PANC-1, the 50% inhibitory concentration (IC50) was more than 100 µM and the “SI PANC-1” value is on record as “n.s”. Also, in the experiment on M-HeLa, the IC50 was found to be 61 ± 5.2 µM and the “SI M-HeLa” value is listed as 1.1. For the same molecule, in the experiment on T98G, the IC50 came out at 31.6 ± 2.5 µM and the “SI T98G” value worked out at 2.1. In the experiment on MCF7, it took 79.1 ± 6.2 µM to reach half-maximal inhibition (IC50) and the “SI MCF7” value is “n.s”.
As to `O=[N+]([O-])c1c(Cl)cc2c(no[n+]2[O-])c1NN1CCOCC1` [Compound 5e, 6-chloro-4-(morpholinoamino)-5-nitrobenzofuroxan], in the experiment with Chang Liver, the IC50 worked out at 65.2 ± 5.8 µM. For the same molecule, in the experiment with PANC-1, the IC50 was more than 100 µM and the “SI PANC-1” value is listed as “n.s”. Also, in the experiment on M-HeLa, inhibition was half-maximal at 61.6 ± 5.2 µM (IC50) and the “SI M-HeLa” value is 1.1. For the same molecule, in the experiment on T98G, the half-maximal inhibitory concentration (IC50) worked out at 57.1 ± 4.3 µM and the “SI T98G” value was 1.1. Moreover, in the experiment on MCF7, the IC50 is more than 100 µM and the “SI MCF7” value is on record as “n.s”.
In the case of `CN(Cc1ccccc1)c1c([N+](=O)[O-])c(Cl)cc2c1no[n+]2[O-]` [Compound 5f, 4-(benzyl(methyl)amino)-6-chloro-5-nitrobenzofuroxan], the half-maximal inhibitory concentration (IC50) in the experiment with Chang Liver was more than 100 µM; in the experiment on PANC-1, more than 100 µM; with M-HeLa, 62.2 ± 5.6 µM; with T98G, more than 100 µM; with MCF7, more than 100 µM. In addition, the “SI PANC-1” value in the experiment on PANC-1 is “n.s”. In addition, the “SI M-HeLa” value with M-HeLa is recorded as more than 1.6. In addition, the inhibition at 1000 µM in experiment [1] (fifth day of incubation, 20 °C) was less than 20%; in experiment [1] (sixth day of incubation, 20 °C), less than 10%; in experiment [2] (fifth day of incubation) it was less than 20%; in experiment [2] (sixth day of incubation), less than 10%. In addition, the “SI T98G” value in the experiment with T98G is listed as “n.s”. Besides, in the experiment with MCF7, the “SI MCF7” value is “n.s”.
For the molecule `COc1cccc2c1C(=O)c1c(O)c3c(c(O)c1C2=O)C[C@@](O)(C(=O)CO)C[C@@H]3O[C@H]1C[C@H](N)[C@H](O)[C@H](C)O1` [Doxorubicin, reference compound], the IC50 with Chang Liver is 3 ± 0.2 µM. In addition, in the experiment on PANC-1, the half-maximal inhibitory concentration (IC50) stood at 3.3 ± 0.1 µM and the “SI PANC-1” value is recorded as 1.0. In addition, in the experiment on M-HeLa, it took 3 ± 0.1 µM to reach half-maximal inhibition (IC50) and the “SI M-HeLa” value is reported as 1.0. In the experiment on T98G, the IC50 came to 6.8 ± 0.5 µM and the “SI T98G” value is reported as “n.s”. In the experiment with MCF7, the IC50 stood at 3 ± 0.2 µM and the “SI MCF7” value was found to be 1.0.
Regarding `c1ccc2[nH]cnc2c1` [benzimidazole, reference compound], the growth inhibition result in experiment [2] (fifth day of incubation) is listed as “null inhibitory effect”.
Consider `COC(=O)Nc1nc2ccccc2[nH]1` [carbendazim, methyl-2-benzimidazole carbamate, reference compound], for which at 1000 µM the inhibition in experiment [1] (sixth day of incubation, 20 °C) was 100%. Besides, in experiment [2] (fifth day of incubation), the growth inhibition entry was “null inhibitory effect”.
